Positions of bridges follow the written chain, without caps; N, C: chain ends. Non-standard residues stand in square brackets, D forms with d. Residues, ends and D or L forms follow the SMILES beside them. *: point of attachment. 5FAM = O=C1OC2(c3ccc(O)cc3Oc3cc(O)ccc32)c2ccc(C(=O)*)cc21; βAla = NCCC(=O)O
System: detergent-solubilized IF or OF TmrA^EQB
Experiment: CP^F anisotropy with IF or OF TmrA^EQB under nucleotide conditions
Assay type: binding, Thermus thermophilus
Settings: for Binding under nucleotide conditions: absence and presence of ATP and ADP
Source text: ABC transport complexes such as TmrAB run through multiple conformational states along the ATP hydrolysis cycle to drive unidirectional substrate transport ([Hofmann et al., 2019]; [Stefan et al., 2020]). Within the substrate translocation cycle, two major conformers, inward-facing (IF) and outward-facing (OF), were identified. To investigate whether CPs favor one of these conformers, we probed the binding of CP^Fs by fluorescence polarization analysis. […] In the latter case, the interaction studies were performed immediately after the IF-to-OF switch by incubation with ATP for 5 min at 45°C. To exclude an OF-to-IF return (τ1/2 of 25 min) ([Stefan et al., 2020]), the fluorescence anisotropy was recorded only within the first minute of incubation.
Figure 5. […] (A, B) CP6^F (A) or CP13^F (B, 50 nM each) were incubated with increasing concentrations of detergent-solubilized inward-facing TmrAB (in the absence of Mg-ATP) or outward-facing TmrA^EQB, which was trapped with Mg-ATP (1 mM) for 5 min at 45°C as described ([Hofmann et al., 2019]; [Stefan et al., 2020]). Immediately after, the fluorescence anisotropy was assayed at λex/em = 485/520 nm. The difference in fluorescence polarization was normalized to free and fully bound CP^F. Data were fitted by a one-site binding model. […] TmrAB (2 µM each) were mixed with CP^Fs (4 µM), ATP (1 mM, traced with [α^32P]-ATP), and MgCl2 (5 mM) for 5 min at 4°C or 45°C. Cold ATP (10 mM) was added, and freely exchangeable nucleotides were removed by rapid gel filtration. Occluded nucleotides were analyzed by thin layer chromatography and autoradiography. Representative radiograms for independent triplicates are shown. (D) Stably occluded nucleotides, [α^32P]-ATP and [α^32P]-ADP, were quantified by autoradiography. Data were normalized to the vanadate-trapped state. In (A, B, D), mean values ± SD (n = 3) are shown. Figure 5—source data 1. Source Data for Figure 5. Figure 5—figure supplement 1. […] (A) CP^Fs (50 nM each) were incubated with increasing concentrations of detergent-solubilized IF TmrAB in the inward-facing (IF) conformation (absence of Mg-ATP) or TmrA^EQB populated in the outward-facing (OF) conformation, which was trapped in the OF conformation by Mg-ATP (1 mM) after 5 min incubation at 45°C. The difference in fluorescence polarization was normalized to unbound (0%) and 100% bound CP^F. Data were fitted by a one-site binding model. Fluorescence anisotropy was recorded at λex/em = 485/520 nm. […] TmrA^EQB (2 µM) were incubated in the absence and presence of CP^Fs (4 µM each), ATP (1 mM, traced with [α^32P]-ATP), and MgCl2 (5 mM) for 5 min at 4°C or 45°C. Cold ATP (10 mM) was added, and free nucleotides were removed by rapid gel filtration. Occluded nucleotides were analyzed by thin layer chromatography and autoradiography. Representative radiograms for independent triplicates are shown. […] Figure 5—figure supplement 1—source data 1.
To determine equilibrium binding constants, CP^Fs (50 nM) were incubated with increasing concentrations of TmrAB-containing or empty liposomes. To probe the conformational selectivity, CP^Fs (50 nM) were mixed with detergent-solubilized IF TmrAB or OF TmrA^EQB. Before, OF TmrA^EQB was nucleotide-trapped by incubation with ATP (1 mM) and MgCl2 (3 mM) in the absence of CP^Fs for 5 min at 45°C.

[1] = TmrAB, 4 °C, CP^F 50 nM, TmrA^EQB 150 nM (CP6^F), 170 nM (CP12^F), 50 nM (CP13^F), 120 nM (CP14^F)
[2] = TmrAB, 45 °C, no nucleotide, CP^F 50 nM, TmrA^EQB 50-170 nM
[3] = TmrAB, ADP, 45 °C, CP^F 50 nM, TmrA^EQB 50-170 nM
[4] = TmrAB, ATP, 45 °C (OF), CP^F 50 nM, TmrA^EQB 50-170 nM
[5] = listed as 4 °C: CP^F 50 nM without TmrAB

Row | Structure (SMILES) | Bound CP^F, fluorescence anisotropy [1] | Bound CP^F, fluorescence anisotropy [2] | Bound CP^F, fluorescence anisotropy [3] | Bound CP^F, fluorescence anisotropy [4] | Binding under nucleotide conditions | Bound CP^F, fluorescence anisotropy [5]
1 | CC(C)C[C@@H]1NC(=O)[C@H](Cc2ccccc2)NC(=O)CNC(=O)[C@H](CO)NC(=O)[C@H](Cc2ccccc2)NC(=O)[C@H](CC(=O)O)NC(=O)[C@@H]2CCCN2C(=O)[C@H]([C@@H](C)O)NC(=O)[C@@H](Cc2ccc(O)cc2)NC(=O)CSC[C@@H](C(=O)NCC(=O)N[C@@H](CO)C(=O)NCCC(=O)NCCC(=O)N[C@@H](CCCNC(=N)N)C(=O)N[C@@H](CCCCNC(=O)c2ccc3c(c2)C(=O)OC32c3ccc(O)cc3Oc3cc(O)ccc32)C(N)=O)NC(=O)[C@H](C)NC(=O)[C@H](CC(N)=O)NC(=O)[C@H](CCCNC(=N)N)NC(=O)[C@H](CC(C)C)NC(=O)[C@H](Cc2ccccc2)NC(=O)[C@H](C)NC1=O [CP12] ({CH2CO}-[dY]TPDFSGFLAFLRNACGS[βAla][βAla]RK(5FAM)-NH2; thioether N-16) | 0.127 | 0.130 | 0.122 | 0.069 | preferentially bind under conditions where IF TmrAB is exclusively populated | 0.023
2 | CC(C)[C@@H]1NC(=O)[C@H](Cc2ccccc2)NC(=O)[C@@H]2CCCN2C(=O)[C@H](CC(N)=O)NC(=O)[C@H](Cc2c[nH]c3ccccc23)NC(=O)[C@H](C(C)C)NC(=O)[C@H](Cc2ccc(O)cc2)NC(=O)[C@H](Cc2ccccc2)NC(=O)[C@@H](Cc2ccc(O)cc2)NC(=O)CSC[C@@H](C(=O)NCC(=O)N[C@@H](CO)C(=O)NCCC(=O)NCCC(=O)N[C@@H](CCCNC(=N)N)C(=O)N[C@@H](CCCCNC(=O)c2ccc3c(c2)C(=O)OC32c3ccc(O)cc3Oc3cc(O)ccc32)C(N)=O)NC(=O)[C@H](CCCCN)NC(=O)[C@H](Cc2ccccc2)NC1=O [CP14] ({CH2CO}-[dY]FYVWNPFVFKCGS[βAla][βAla]RK(5FAM)-NH2; thioether N-12; C-terminus assumed) | 0.134 | 0.132 | 0.131 | 0.127 | bind in the absence and presence of ATP and ADP | 0.023
3 | CC[C@H](C)[C@@H]1NC(=O)[C@H](Cc2c[nH]c3ccccc23)NC(=O)[C@H](CC(N)=O)NC(=O)[C@H](C)NC(=O)[C@H](CO)NC(=O)[C@@H]2CCCN2C(=O)[C@H](CC(=O)O)NC(=O)[C@@H](Cc2ccc(O)cc2)NC(=O)CSC[C@@H](C(=O)NCC(=O)N[C@@H](CO)C(=O)NCCC(=O)NCCC(=O)N[C@@H](CCCNC(=N)N)C(=O)N[C@@H](CCCCNC(=O)c2ccc3c(c2)C(=O)OC32c3ccc(O)cc3Oc3cc(O)ccc32)C(N)=O)NC(=O)[C@H]([C@@H](C)O)NC(=O)[C@H](CC(C)C)NC(=O)[C@H](CC(C)C)NC(=O)[C@H](C(C)C)NC(=O)[C@H](CC(C)C)NC1=O [CP13] ({CH2CO}-[dY]DPSANWILVLLTCGS[βAla][βAla]RK(5FAM)-NH2; thioether N-14; C-terminus assumed) | 0.055 | 0.051 | 0.050 | 0.048 | bind in the absence and presence of ATP and ADP | 0.023
4 | CC[C@H](C)[C@@H]1NC(=O)[C@H]([C@@H](C)O)NC(=O)[C@H](CC(C)C)NC(=O)[C@H](Cc2c[nH]c3ccccc23)NC(=O)[C@H](Cc2ccccc2)NC(=O)[C@H](CC(N)=O)NC(=O)[C@H](CCC(=O)O)NC(=O)[C@H](CC(C)C)NC(=O)[C@H](CS)NC(=O)[C@H](Cc2c[nH]cn2)NC(=O)[C@H](CO)NC(=O)[C@@H](Cc2ccc(O)cc2)NC(=O)CSC[C@@H](C(=O)NCC(=O)N[C@@H](CO)C(=O)NCCC(=O)NCCC(=O)N[C@@H](CCCNC(=N)N)C(=O)N[C@@H](CCCCNC(=O)c2ccc3c(c2)C(=O)OC32c3ccc(O)cc3Oc3cc(O)ccc32)C(N)=O)NC(=O)[C@H](CC(C)C)NC1=O [CP6] ({CH2CO}-[dY]SHCLENFWLTILCGS[βAla][βAla]RK(5FAM)-NH2; thioether N-14) | 0.143 | 0.132 | 0.129 | 0.050 | preferentially bind under conditions where IF TmrAB is exclusively populated | 0.019
